# Experimental data from publication PMC7093416, “Selective USP7 inhibition elicits cancer cell killing through a p53-dependent mechanism” (Scientific Reports, 2020).
# Several values for one entry are separate records, joined by “and”; a condition that tells them apart may be missing. Identical values can stand only once.
# Test system: panel of 484 cancer cell lines
# Assay: PRISM cancer cell line profiling, 5 days
# Type: cell-based
# Design: Viability: scale not given here; AUC: unit not given beside the values
# Procedure: Cancer cell line profiling was performed using the Broad’s PRISM platform. Cell treatment and data analysis were performed as described in Yu et al[42]. Raw Luminex signal was converted to AUC values for each cell line as described. The resulting AUC profile for each compound was modeled against DepMap using the limma package in R[71]. Because hotspot mutation analysis was performed against DepMap, TP53 annotations in Fig. 6c,d are directly from DepMap.
# [1] = HEC59_ENDOMETRIUM, pert_dose 6.10E-04
# [2] = HEC108_ENDOMETRIUM, pert_dose 6.10E-04
# [3] = HEC151_ENDOMETRIUM, pert_dose 6.10E-04
# [4] = HEP3B217_LIVER, pert_dose 6.10E-04
# [5] = HEYA8_OVARY, pert_dose 6.10E-04
# [6] = HPAC_PANCREAS, pert_dose 6.10E-04
# [7] = HS294T_SKIN, pert_dose 6.10E-04
# [8] = HS618T_LUNG, pert_dose 6.10E-04
# [9] = HS729_SOFT_TISSUE, pert_dose 6.10E-04
# [10] = HS766T_PANCREAS, pert_dose 6.10E-04
# [11] = HS852T_SKIN, pert_dose 6.10E-04
# [12] = HS939T_SKIN, pert_dose 6.10E-04
# [13] = HSC2_UPPER_AERODIGESTIVE_TRACT, pert_dose 6.10E-04
# [14] = HSC3_UPPER_AERODIGESTIVE_TRACT, pert_dose 6.10E-04
# [15] = HT29_LARGE_INTESTINE, pert_dose 6.10E-04
# [16] = HT55_LARGE_INTESTINE, pert_dose 6.10E-04
# [17] = HUCCT1_BILIARY_TRACT, pert_dose 6.10E-04
# [18] = HUH28_BILIARY_TRACT, pert_dose 6.10E-04
# [19] = IGROV1_OVARY, pert_dose 6.10E-04
# [20] = IPC298_SKIN, pert_dose 6.10E-04
compound,measurement,setting,value
COc1ccc(C2=N[C@@H](c3ccc(Cl)cc3)[C@@H](c3ccc(Cl)cc3)N2C(=O)N2CCNC(=O)C2)c(OC(C)C)c1 [Nutlin-3A],AUC,HEC59_ENDOMETRIUM,1.062
same,MFI HEC59_ENDOMETRIUM,[1],10418.5 and 8852 and 7376 and 10636 and 7469
same,Viability,[1],1.236
same,AUC,HEC108_ENDOMETRIUM,0.9813
same,MFI HEC108_ENDOMETRIUM,[2],22169.5 and 21680 and 21571 and 20999 and 14974
same,Viability,[2],1.448
same,AUC,HEC151_ENDOMETRIUM,0.8923
same,MFI HEC151_ENDOMETRIUM,[3],15512 and 13471 and 16551 and 13036 and 13374
same,Viability,[3],1.158
same,AUC,HEC251_ENDOMETRIUM,1.051
same,AUC,HEC265_ENDOMETRIUM,0.862
same,Viability,"HEC265_ENDOMETRIUM, pert_dose 6.10E-04",1.3422
same,AUC,HEP3B217_LIVER,1.168
same,MFI HEP3B217_LIVER,[4],4895 and 4355 and 5398 and 5541 and 7085.5
same,Viability,[4],1.05
same,AUC,HEYA8_OVARY,0.8732
same,MFI HEYA8_OVARY,[5],14485.5 and 11701.5 and 12129 and 10947 and 12823
same,Viability,[5],1.321
same,AUC,HGC27_STOMACH,1.116
same,AUC,HLF_LIVER,1.153
same,AUC,HMC18_BREAST,1.214
same,MFI HMC18_BREAST,"HMC18_BREAST, pert_dose 6.10E-04",29555.5 and 31726 and 28535 and 27291 and 25031.5
same,AUC,HOS_BONE,1.0473
same,MFI HOS_BONE,"HOS_BONE, pert_dose 6.10E-04",25115 and 17203.5 and 23311.5 and 23304 and 24478
same,Viability,"HOS_BONE, pert_dose 6.10E-04",1.257
same,AUC,HPAC_PANCREAS,1.491
same,MFI HPAC_PANCREAS,[6],14040 and 13836.5 and 12138 and 14386 and 13656
same,Viability,[6],1.593
same,AUC,HS294T_SKIN,0.8649
same,MFI HS294T_SKIN,[7],15509 and 11081.5 and 12624.5 and 16477 and 13812.5
same,Viability,[7],1.3841
same,AUC,HS618T_LUNG,1.119
same,MFI HS618T_LUNG,[8],423.5 and 422.5 and 583 and 491 and 486.5
same,Viability,[8],1.131
same,AUC,HS729_SOFT_TISSUE,1.053
same,MFI HS729_SOFT_TISSUE,[9],5267.5 and 3467.5 and 6111 and 4197 and 4598
same,Viability,[9],1.333
same,AUC,HS766T_PANCREAS,1.165
same,MFI HS766T_PANCREAS,[10],2873 and 4107.5 and 4713 and 3779 and 3684
same,Viability,[10],0.8691
same,AUC,HS852T_SKIN,0.95
same,MFI HS852T_SKIN,[11],952 and 665.5 and 666.5 and 706 and 781.5
same,Viability,[11],1.404
same,AUC,HS939T_SKIN,0.8847
same,MFI HS939T_SKIN,[12],1676 and 1756.5 and 2260 and 2253 and 2240
same,Viability,[12],0.6815
same,AUC,HS944T_SKIN,1.082
same,AUC,HSC2_UPPER_AERODIGESTIVE_TRACT,0.986
same,MFI HSC2_UPPER_AERODIGESTIVE_TRACT,[13],16228 and 12093.5 and 8568 and 11207.5 and 10414
same,Viability,[13],1.409
same,AUC,HSC3_UPPER_AERODIGESTIVE_TRACT,1.141
same,MFI HSC3_UPPER_AERODIGESTIVE_TRACT,[14],19468 and 21785 and 24258 and 21275 and 18776
same,Viability,[14],1.0036
same,AUC,HT29_LARGE_INTESTINE,1.34
same,MFI HT29_LARGE_INTESTINE,[15],15605 and 16428.5 and 18104 and 14824 and 17298
same,Viability,[15],1.215
same,AUC,HT55_LARGE_INTESTINE,1.149
same,MFI HT55_LARGE_INTESTINE,[16],18343 and 20659.5 and 20881.5 and 14879 and 18638
same,Viability,[16],1.081
same,AUC,HT144_SKIN,0.8778
same,AUC,HT1080_SOFT_TISSUE,0.7842
same,AUC,HT1376_URINARY_TRACT,1.193
same,AUC,HUCCT1_BILIARY_TRACT,1.095
same,MFI HUCCT1_BILIARY_TRACT,[17],24976 and 22701 and 21301.5 and 24041 and 22645
same,Viability,[17],1.1214
same,AUC,HUH6_LIVER,1.038
same,MFI HUH6_LIVER,"HUH6_LIVER, pert_dose 6.10E-04",2954 and 3148.5 and 3422 and 2906 and 2817
same,Viability,"HUH6_LIVER, pert_dose 6.10E-04",1.443
same,AUC,HUH7_LIVER,1.414
same,MFI HUH7_LIVER,"HUH7_LIVER, pert_dose 6.10E-04",2519 and 3872.5 and 2817 and 4186 and 2978
same,Viability,"HUH7_LIVER, pert_dose 6.10E-04",1.154
same,AUC,HUH28_BILIARY_TRACT,1.075
same,MFI HUH28_BILIARY_TRACT,[18],10419.5 and 14552 and 18877 and 11771 and 16814
same,Viability,[18],1.064
same,AUC,HUPT3_PANCREAS,1.108
same,MFI HUPT3_PANCREAS,"HUPT3_PANCREAS, pert_dose 6.10E-04",6399 and 3235.5 and 3378 and 3719 and 5662
same,AUC,IALM_LUNG,1.093
same,MFI IALM_LUNG,"IALM_LUNG, pert_dose 6.10E-04",15214 and 17539 and 16640 and 15373 and 14718
same,Viability,"IALM_LUNG, pert_dose 6.10E-04",0.9343
same,AUC,IGR1_SKIN,0.9397
same,MFI IGR1_SKIN,"IGR1_SKIN, pert_dose 6.10E-04",9685 and 12749 and 10992 and 10674 and 10187.5
same,Viability,"IGR1_SKIN, pert_dose 6.10E-04",1.096
same,AUC,IGR37_SKIN,1.088
same,Viability,"IGR37_SKIN, pert_dose 6.10E-04",0.7539
same,AUC,IGROV1_OVARY,0.9652
same,MFI IGROV1_OVARY,[19],16733 and 14037 and 9860 and 14121 and 11292
same,Viability,[19],1.232
same,AUC,IM95_STOMACH,0.8918
same,AUC,IPC298_SKIN,1.102
same,MFI IPC298_SKIN,[20],24999 and 31830 and 20542 and 28455.5 and 32422
same,Viability,[20],1.1324
same,AUC,ISHIKAWAHERAKLIO02ER_ENDOMETRIUM,1.148
